Source: ChEMBL document CHEMBL1201862, “PubChem BioAssay data set” (2004)
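48-hour exposure; five concentrations; linearly interpolated endpoints. GI50 is the concentration that inhibits growth by half.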 Active and inactive are the calls of the source. Cut-off read from the data, not from the text of the source: active = GI50 up to about 1.1 µM and inactive = higher.

What was measured:
Assay in all cases: NCI-60 cell line screen, 48 h
CCRF-CEM = test system: CCRF-CEM
EKVX = test system: EKVX
M14 = test system: M14
RPMI-8226 = test system: RPMI-8226
SNB-75 = test system: SNB-75
OVCAR-5 = test system: OVCAR-5
UACC-62 = test system: UACC-62
SK-MEL-5 = test system: SK-MEL-5
DLD-1 = test system: DLD-1
OVCAR-3 = test system: OVCAR-3
KM12 = test system: KM12
LOX IMVI = test system: LOX IMVI
NCI-H460 = test system: NCI-H460
SN12C = test system: SN12C
RXF 631 = test system: RXF 631
CAKI-1 = test system: CAKI-1
NCI-H23 = test system: NCI-H23
SK-OV-3 = test system: SK-OV-3
786-0 = test system: 786-0
SW-620 = test system: SW-620
DMS-114 = test system: DMS-114
RXF 393 = test system: RXF 393
HCT-15 = test system: HCT-15
IGROV-1 = test system: IGROV-1
HOP-62 = test system: HOP-62
UO-31 = test system: UO-31
HOP-18 = test system: HOP-18
SK-MEL-28 = test system: SK-MEL-28
KM-20L2 = test system: KM-20L2
LXFL 529 = test system: LXFL 529
NCI-H522 = test system: NCI-H522
SNB-78 = test system: SNB-78
K562 = test system: K562
SF-539 = test system: SF-539
SF-295 = test system: SF-295
SF-268 = test system: SF-268
MOLT-4 = test system: MOLT-4
SK-MEL-2 = test system: SK-MEL-2
A498 = test system: A498
HOP-92 = test system: HOP-92
HL-60 = test system: HL-60
U-251 = test system: U-251
M19-MEL = test system: M19-MEL
HT-29 = test system: HT-29
DMS-273 = test system: DMS-273
OVCAR-4 = test system: OVCAR-4
Malme-3M = test system: Malme-3M
A549 = test system: A549
OVCAR-8 = test system: OVCAR-8
COLO 205 = test system: COLO 205
UACC-257 = test system: UACC-257
ACHN = test system: ACHN
SNB-19 = test system: SNB-19

Which GI50 (CCRF-CEM) does the source give for `N=C(N)NS(=O)(=O)c1ccc(NC(=O)c2ccc(Cl)c3c(Nc4ccc(S(=O)(=O)N=C(N)N)cc4)c4ccccc4nc23)cc1` here?
The GI50 was 43.1 µM (inactive).

And the GI50 (EKVX)?
The GI50 was 56.8 µM (inactive).

What about the GI50 (M14) of the same molecule?
Its GI50 is > 100 µM (inactive).

And the GI50 (RPMI-8226)?
Its GI50 is 85.1 µM (inactive).

What about the GI50 (SNB-75) of the same molecule?
Its GI50 is 24.5 µM (inactive).

And the GI50 (OVCAR-5)?
Its GI50 is > 100 µM (inactive).

And the GI50 (UACC-62)?
The GI50 was 37.5 µM (inactive).

And the GI50 (SK-MEL-5)?
The GI50 was > 10 µM (inactive).

What about the GI50 (DLD-1) of the same molecule?
The GI50 was 49.2 µM (inactive).

And the GI50 (OVCAR-3)?
The GI50 was 32.2 µM (inactive).

And the GI50 (KM12)?
The GI50 was 24.5 µM (inactive).

What about the GI50 (LOX IMVI) of the same molecule?
The GI50 was 50.9 µM (inactive).

What about the GI50 (NCI-H460) of the same molecule?
Its GI50 is > 100 µM (inactive).

What about the GI50 (SN12C) of the same molecule?
Its GI50 is > 100 µM (inactive).

What about the GI50 (RXF 631) of the same molecule?
The GI50 was > 100 µM (inactive).

And the GI50 (CAKI-1)?
Its GI50 is 45.4 µM (inactive).

What about the GI50 (NCI-H23) of the same molecule?
The GI50 was > 100 µM (inactive).

What about the GI50 (SK-OV-3) of the same molecule?
The GI50 was > 100 µM (inactive).

What about the GI50 (786-0) of the same molecule?
Its GI50 is > 100 µM (inactive).

And the GI50 (SW-620)?
Its GI50 is 56.2 µM (inactive).

What about the GI50 (DMS-114) of the same molecule?
Its GI50 is > 100 µM (inactive).

What about the GI50 (RXF 393) of the same molecule?
Its GI50 is > 100 µM (inactive).

And the GI50 (HCT-15)?
Its GI50 is > 100 µM.

And the GI50 (IGROV-1)?
Its GI50 is 76.4 µM (inactive).

What about the GI50 (HOP-62) of the same molecule?
Its GI50 is 53.2 µM (inactive).

What about the GI50 (UO-31) of the same molecule?
The GI50 was 83.9 µM (inactive).

And the GI50 (HOP-18)?
The GI50 was 68.1 µM (inactive).

What about the GI50 (SK-MEL-28) of the same molecule?
Its GI50 is 61 µM (inactive).

And the GI50 (KM-20L2)?
The GI50 was > 100 µM (inactive).

What about the GI50 (LXFL 529) of the same molecule?
Its GI50 is 52.8 µM (inactive).

And the GI50 (NCI-H522)?
Its GI50 is 38.2 µM (inactive).

What about the GI50 (SNB-78) of the same molecule?
The GI50 was 45 µM (inactive).

What about the GI50 (K562) of the same molecule?
Its GI50 is 38.1 µM (inactive).

And the GI50 (SF-539)?
Its GI50 is 53.7 µM (inactive).

And the GI50 (SF-295)?
Its GI50 is > 100 µM (inactive).

And the GI50 (SF-268)?
The GI50 was > 100 µM (inactive).

And the GI50 (MOLT-4)?
Its GI50 is > 100 µM (inactive).

What about the GI50 (SK-MEL-2) of the same molecule?
Its GI50 is 39.5 µM (inactive).

And the GI50 (A498)?
Its GI50 is > 100 µM (inactive).

And the GI50 (HOP-92)?
The GI50 was 28.2 µM (inactive).

And the GI50 (HL-60)?
Its GI50 is 41.3 µM (inactive).

And the GI50 (U-251)?
The GI50 was 76.7 µM (inactive).

What about the GI50 (M19-MEL) of the same molecule?
The GI50 was 49.8 µM (inactive).

What about the GI50 (HT-29) of the same molecule?
Its GI50 is > 100 µM (inactive).

What about the GI50 (DMS-273) of the same molecule?
Its GI50 is > 100 µM (inactive).

What about the GI50 (OVCAR-4) of the same molecule?
The GI50 was > 100 µM (inactive).

What about the GI50 (Malme-3M) of the same molecule?
Its GI50 is > 100 µM (inactive).

And the GI50 (A549)?
Its GI50 is > 100 µM (inactive).

What about the GI50 (OVCAR-8) of the same molecule?
Its GI50 is > 100 µM (inactive).

And the GI50 (COLO 205)?
Its GI50 is 91.4 µM (inactive).

And the GI50 (UACC-257)?
The GI50 was 84.5 µM (inactive).

And the GI50 (ACHN)?
The GI50 was 95.5 µM (inactive).

And the GI50 (SNB-19)?
Its GI50 is 53.3 µM (inactive).
